Data from ChEMBL document CHEMBL4387741, “Optimization of novel reversible Bruton's tyrosine kinase inhibitors identified using Tethering-fragment-based screens” (Bioorg Med Chem, 2019).

Key:
[1] = biological target: 5'-AMP-activated protein kinase catalytic subunit alpha-1 (Homo sapiens) (UniProt Q13131); test: Inhibition of wild-type human partial length AMPK alpha1 (M1 to E306 residues) expressed in bacterial expression system at 1 uM by Kinomescan method relative to control
[2] = biological target: 5'-AMP-activated protein kinase catalytic subunit alpha-2 (Homo sapiens) (UniProt P54646); test: Inhibition of wild-type human partial length AMPK alpha2 (M1 to E306 residues) expressed in bacterial expression system at 1 uM by Kinomescan method relative to control
[3] = biological target: Tyrosine-protein kinase BTK (Homo sapiens, UniProt Q06187); test: Inhibition of wild-type human full length BTK (M1 to S659 residues) expressed in mammalian expression system at 1 uM by Kinomescan method relative to control
[4] = biological target: Vascular endothelial growth factor receptor 3 (Homo sapiens) (UniProt P35916); test: Inhibition of wild-type human partial length FLT4 (E821 to E1196 residues) expressed in bacterial expression system at 1 uM by Kinomescan method relative to control
[5] = biological target: Mitogen-activated protein kinase kinase kinase kinase 1 (Homo sapiens) (UniProt Q92918); test: Inhibition of wild-type human full length HPK1 (M1 to R799 residues) expressed in bacterial expression system at 1 uM by Kinomescan method relative to control
[6] = biological target: Mitogen-activated protein kinase 10 (Homo sapiens) (UniProt P53779); test: Inhibition of wild-type human partial length JNK3 (V28 to Q422 residues) expressed in mammalian expression system at 1 uM by Kinomescan method relative to control
[7] = biological target: Leucine-rich repeat serine/threonine-protein kinase 2 (Homo sapiens) (UniProt Q5S007); test: Inhibition of wild-type human partial length LRRK2 (H970 to E2527 residues) expressed in mammalian expression system at 1 uM by Kinomescan method relative to control
[8] = biological target: Mitogen-activated protein kinase kinase kinase 10 (Homo sapiens) (UniProt Q02779); test: Inhibition of wild-type human partial length MLK2 (V52 to W380 residues) expressed in bacterial expression system at 1 uM by Kinomescan method relative to control
[9] = biological target: Serine/threonine-protein kinase MRCK alpha (Homo sapiens) (UniProt Q5VT25); test: Inhibition of wild-type human partial length MRCKA (L57 to V418 residues) expressed in bacterial expression system at 1 uM by Kinomescan method relative to control
[10] = biological target: Serine/threonine-protein kinase 4 (Homo sapiens) (UniProt Q13043); test: Inhibition of wild-type human full length MST1 (M1 to F487 residues) expressed in bacterial expression system at 1 uM by Kinomescan method relative to control
[11] = biological target: Macrophage-stimulating protein receptor (Homo sapiens) (UniProt Q04912); test: Inhibition of wild-type human partial length MST1R (I1057 to L1363 residues) expressed in bacterial expression system at 1 uM by Kinomescan method relative to control
[12] = biological target: Serine/threonine-protein kinase Nek4 (Homo sapiens) (UniProt P51957); test: Inhibition of wild-type human full length NEK4 (M1 to F841 residues) expressed in mammalian expression system at 1 uM by Kinomescan method relative to control
[13] = biological target: Mitogen-activated protein kinase kinase kinase 14 (Homo sapiens) (UniProt Q99558); test: Inhibition of wild-type human partial length NIK (L318 to P947 residues) expressed in mammalian expression system at 1 uM by Kinomescan method relative to control
[14] = biological target: Platelet-derived growth factor receptor alpha (Homo sapiens) (UniProt P16234); test: Inhibition of wild-type human partial length PDGFRA (V575 to D1002 residues) expressed in mammalian expression system at 1 uM by Kinomescan method relative to control
[15] = biological target: cAMP-dependent protein kinase catalytic subunit beta (Homo sapiens) (UniProt P22694); test: Inhibition of wild-type human full length PKAC-beta (M1 to F351 residues) expressed in bacterial expression system at 1 uM by Kinomescan method relative to control
[16] = biological target: Protein kinase C theta type (Homo sapiens) (UniProt Q04759); test: Inhibition of wild-type human partial length PRKCQ (L350 to S706 residues) expressed in bacterial expression system at 1 uM by Kinomescan method relative to control
[17] = biological target: Serine/threonine-protein kinase D2 (Homo sapiens) (UniProt Q9BZL6); test: Inhibition of wild-type human partial length PRKD2 (A519 to E838 residues) expressed in bacterial expression system at 1 uM by Kinomescan method relative to control
[18] = biological target: cGMP-dependent protein kinase 1 (Homo sapiens) (UniProt Q13976); test: Inhibition of wild-type human partial length PRKG1 (L339 to F686 residues) expressed in bacterial expression system at 1 uM by Kinomescan method relative to control
[19] = biological target: Tyrosine-protein kinase ZAP-70 (Homo sapiens) (UniProt P43403); test: Inhibition of wild-type human partial length ZAP70 (D20 to G299 residues) expressed in mammalian expression system at 1 uM by Kinomescan method relative to control
[20] = biological target: Calcium/calmodulin-dependent protein kinase type 1D (Homo sapiens) (UniProt Q8IU85); test: Inhibition of wild-type human partial length CAMK1D (M1 to K299 residues) expressed in bacterial expression system at 10 uM by Kinomescan method relative to control
[21] = biological target: Cyclin-dependent kinase 4 (Homo sapiens) (UniProt P11802); test: Inhibition of wild-type human full length CDK4 (M1 to E303 residues) expressed in mammalian expression system at 10 uM by Kinomescan method relative to control
[22] = biological target: Casein kinase I isoform delta (Homo sapiens) (UniProt P48730); test: Inhibition of wild-type human full length CSNK1D (M1 to K409 residues) expressed in bacterial expression system at 10 uM by Kinomescan method relative to control
[23] = biological target: Receptor tyrosine-protein kinase erbB-4 (Homo sapiens) (UniProt Q15303); test: Inhibition of wild-type human partial length ERBB4 (L690 to K994 residues) expressed in bacterial expression system at 10 uM by Kinomescan method relative to control
[24] = biological target: Vascular endothelial growth factor receptor 3 (Homo sapiens) (UniProt P35916); test: Inhibition of wild-type human partial length FLT4 (E821 to E1196 residues) expressed in bacterial expression system at 10 uM by Kinomescan method relative to control
[25] = biological target: Tyrosine-protein kinase Fyn (Homo sapiens) (UniProt P06241); test: Inhibition of wild-type human partial length FYN (T243 to L534 residues) expressed in bacterial expression system at 10 uM by Kinomescan method relative to control
[26] = biological target: Mitogen-activated protein kinase kinase kinase 10 (Homo sapiens) (UniProt Q02779); test: Inhibition of wild-type human partial length MLK2 (V52 to W380 residues) expressed in bacterial expression system at 10 uM by Kinomescan method relative to control
[27] = biological target: Mitogen-activated protein kinase 13 (Homo sapiens) (UniProt O15264); test: Inhibition of wild-type human full length p38-delta (M1 to L365 residues) expressed in bacterial expression system at 10 uM by Kinomescan method relative to control

Sequence of Mitogen-activated protein kinase kinase kinase 10 (Homo sapiens) (Q02779 whole entry, looked up, the tested form may be a part): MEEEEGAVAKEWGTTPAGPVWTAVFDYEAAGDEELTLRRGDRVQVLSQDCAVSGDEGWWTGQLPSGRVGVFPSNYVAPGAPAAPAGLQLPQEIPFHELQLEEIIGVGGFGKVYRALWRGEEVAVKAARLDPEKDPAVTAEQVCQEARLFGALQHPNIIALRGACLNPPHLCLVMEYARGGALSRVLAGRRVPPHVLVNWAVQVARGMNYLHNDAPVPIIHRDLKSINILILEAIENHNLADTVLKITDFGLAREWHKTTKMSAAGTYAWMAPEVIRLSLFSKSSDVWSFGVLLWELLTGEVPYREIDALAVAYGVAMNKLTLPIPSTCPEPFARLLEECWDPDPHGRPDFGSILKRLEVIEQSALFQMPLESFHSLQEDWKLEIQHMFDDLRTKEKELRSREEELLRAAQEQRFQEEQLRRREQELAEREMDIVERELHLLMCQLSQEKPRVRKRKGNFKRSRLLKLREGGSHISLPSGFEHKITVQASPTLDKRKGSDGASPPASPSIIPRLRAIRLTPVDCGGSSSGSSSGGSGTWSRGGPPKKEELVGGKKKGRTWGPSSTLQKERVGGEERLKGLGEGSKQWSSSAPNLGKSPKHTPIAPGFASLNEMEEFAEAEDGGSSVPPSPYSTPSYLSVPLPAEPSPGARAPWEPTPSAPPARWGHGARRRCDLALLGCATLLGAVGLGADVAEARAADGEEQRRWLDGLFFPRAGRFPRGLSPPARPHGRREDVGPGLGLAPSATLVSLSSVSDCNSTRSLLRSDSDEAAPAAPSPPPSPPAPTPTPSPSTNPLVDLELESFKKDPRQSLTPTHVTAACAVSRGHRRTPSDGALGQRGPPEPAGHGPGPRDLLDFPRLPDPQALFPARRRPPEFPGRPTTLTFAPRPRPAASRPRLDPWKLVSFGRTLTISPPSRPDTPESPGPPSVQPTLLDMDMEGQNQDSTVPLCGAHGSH
Sequence of Vascular endothelial growth factor receptor 3 (Homo sapiens) (P35916 whole entry, the tested form may be a part): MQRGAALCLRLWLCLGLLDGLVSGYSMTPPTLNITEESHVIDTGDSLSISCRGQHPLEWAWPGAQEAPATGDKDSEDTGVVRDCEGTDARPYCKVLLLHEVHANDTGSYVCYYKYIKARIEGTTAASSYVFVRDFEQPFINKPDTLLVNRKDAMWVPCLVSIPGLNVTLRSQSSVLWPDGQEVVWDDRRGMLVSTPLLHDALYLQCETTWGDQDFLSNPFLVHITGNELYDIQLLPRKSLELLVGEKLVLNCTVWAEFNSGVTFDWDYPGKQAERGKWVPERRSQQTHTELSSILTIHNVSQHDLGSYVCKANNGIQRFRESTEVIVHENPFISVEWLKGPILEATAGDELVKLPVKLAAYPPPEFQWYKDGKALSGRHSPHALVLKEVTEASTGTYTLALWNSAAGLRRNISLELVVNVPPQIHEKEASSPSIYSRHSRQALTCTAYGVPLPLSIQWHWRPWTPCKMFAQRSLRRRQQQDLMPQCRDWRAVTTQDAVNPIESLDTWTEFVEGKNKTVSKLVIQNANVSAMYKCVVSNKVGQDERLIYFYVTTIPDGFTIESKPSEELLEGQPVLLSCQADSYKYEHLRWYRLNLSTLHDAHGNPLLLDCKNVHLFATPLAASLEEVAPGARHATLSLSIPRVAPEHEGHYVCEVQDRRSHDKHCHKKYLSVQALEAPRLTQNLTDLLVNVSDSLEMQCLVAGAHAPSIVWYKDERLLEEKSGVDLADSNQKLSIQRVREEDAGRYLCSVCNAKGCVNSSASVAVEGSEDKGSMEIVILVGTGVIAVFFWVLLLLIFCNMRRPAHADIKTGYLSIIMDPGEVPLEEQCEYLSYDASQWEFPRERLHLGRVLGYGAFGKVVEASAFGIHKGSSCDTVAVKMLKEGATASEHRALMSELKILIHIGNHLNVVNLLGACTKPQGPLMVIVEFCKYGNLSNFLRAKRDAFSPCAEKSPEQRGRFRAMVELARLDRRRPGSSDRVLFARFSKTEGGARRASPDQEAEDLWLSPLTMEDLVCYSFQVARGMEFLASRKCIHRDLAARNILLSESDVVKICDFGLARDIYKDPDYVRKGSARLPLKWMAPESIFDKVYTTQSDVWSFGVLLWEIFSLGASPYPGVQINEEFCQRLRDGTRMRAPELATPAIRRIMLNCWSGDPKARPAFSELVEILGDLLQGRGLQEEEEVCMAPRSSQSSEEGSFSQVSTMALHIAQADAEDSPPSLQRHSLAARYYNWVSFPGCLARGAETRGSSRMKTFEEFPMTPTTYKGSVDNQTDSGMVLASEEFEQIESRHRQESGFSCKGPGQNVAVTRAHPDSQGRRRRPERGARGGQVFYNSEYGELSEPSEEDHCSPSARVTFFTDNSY
Sequence of Tyrosine-protein kinase BTK (Q06187 whole entry, the tested form may be a part): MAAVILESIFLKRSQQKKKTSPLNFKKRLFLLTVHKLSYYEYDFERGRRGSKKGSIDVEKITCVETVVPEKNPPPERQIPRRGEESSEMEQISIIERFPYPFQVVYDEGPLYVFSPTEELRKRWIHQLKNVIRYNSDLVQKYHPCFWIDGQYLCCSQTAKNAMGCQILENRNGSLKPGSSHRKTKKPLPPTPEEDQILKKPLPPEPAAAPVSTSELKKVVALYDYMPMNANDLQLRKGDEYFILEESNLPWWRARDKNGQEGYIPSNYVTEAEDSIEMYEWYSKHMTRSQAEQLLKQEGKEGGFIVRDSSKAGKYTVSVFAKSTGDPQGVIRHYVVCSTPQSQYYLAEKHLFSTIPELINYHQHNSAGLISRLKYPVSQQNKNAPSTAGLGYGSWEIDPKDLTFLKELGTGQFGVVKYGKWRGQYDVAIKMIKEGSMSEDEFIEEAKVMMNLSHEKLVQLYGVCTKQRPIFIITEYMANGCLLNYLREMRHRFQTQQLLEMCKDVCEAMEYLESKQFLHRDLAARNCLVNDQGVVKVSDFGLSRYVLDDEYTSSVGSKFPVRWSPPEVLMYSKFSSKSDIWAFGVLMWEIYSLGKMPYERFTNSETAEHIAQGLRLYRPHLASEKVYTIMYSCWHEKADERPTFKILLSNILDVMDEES
Sequence of Serine/threonine-protein kinase 4 (Homo sapiens) (Q13043 whole entry, the tested form may be a part): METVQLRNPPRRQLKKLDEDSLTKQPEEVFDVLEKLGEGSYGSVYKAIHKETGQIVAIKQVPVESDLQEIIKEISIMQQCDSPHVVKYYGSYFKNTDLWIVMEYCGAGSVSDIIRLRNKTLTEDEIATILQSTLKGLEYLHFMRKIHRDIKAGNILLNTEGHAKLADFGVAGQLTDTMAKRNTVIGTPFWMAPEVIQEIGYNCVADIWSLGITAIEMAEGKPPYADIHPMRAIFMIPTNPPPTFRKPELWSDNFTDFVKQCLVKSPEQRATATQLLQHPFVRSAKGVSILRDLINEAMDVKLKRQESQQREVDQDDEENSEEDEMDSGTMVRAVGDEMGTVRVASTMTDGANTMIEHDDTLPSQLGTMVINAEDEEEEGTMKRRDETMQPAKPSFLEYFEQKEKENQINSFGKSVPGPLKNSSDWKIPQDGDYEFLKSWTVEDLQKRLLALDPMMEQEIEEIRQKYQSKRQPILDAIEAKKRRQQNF
Sequence of Receptor tyrosine-protein kinase erbB-4 (Homo sapiens) (Q15303 whole entry, the tested form may be a part): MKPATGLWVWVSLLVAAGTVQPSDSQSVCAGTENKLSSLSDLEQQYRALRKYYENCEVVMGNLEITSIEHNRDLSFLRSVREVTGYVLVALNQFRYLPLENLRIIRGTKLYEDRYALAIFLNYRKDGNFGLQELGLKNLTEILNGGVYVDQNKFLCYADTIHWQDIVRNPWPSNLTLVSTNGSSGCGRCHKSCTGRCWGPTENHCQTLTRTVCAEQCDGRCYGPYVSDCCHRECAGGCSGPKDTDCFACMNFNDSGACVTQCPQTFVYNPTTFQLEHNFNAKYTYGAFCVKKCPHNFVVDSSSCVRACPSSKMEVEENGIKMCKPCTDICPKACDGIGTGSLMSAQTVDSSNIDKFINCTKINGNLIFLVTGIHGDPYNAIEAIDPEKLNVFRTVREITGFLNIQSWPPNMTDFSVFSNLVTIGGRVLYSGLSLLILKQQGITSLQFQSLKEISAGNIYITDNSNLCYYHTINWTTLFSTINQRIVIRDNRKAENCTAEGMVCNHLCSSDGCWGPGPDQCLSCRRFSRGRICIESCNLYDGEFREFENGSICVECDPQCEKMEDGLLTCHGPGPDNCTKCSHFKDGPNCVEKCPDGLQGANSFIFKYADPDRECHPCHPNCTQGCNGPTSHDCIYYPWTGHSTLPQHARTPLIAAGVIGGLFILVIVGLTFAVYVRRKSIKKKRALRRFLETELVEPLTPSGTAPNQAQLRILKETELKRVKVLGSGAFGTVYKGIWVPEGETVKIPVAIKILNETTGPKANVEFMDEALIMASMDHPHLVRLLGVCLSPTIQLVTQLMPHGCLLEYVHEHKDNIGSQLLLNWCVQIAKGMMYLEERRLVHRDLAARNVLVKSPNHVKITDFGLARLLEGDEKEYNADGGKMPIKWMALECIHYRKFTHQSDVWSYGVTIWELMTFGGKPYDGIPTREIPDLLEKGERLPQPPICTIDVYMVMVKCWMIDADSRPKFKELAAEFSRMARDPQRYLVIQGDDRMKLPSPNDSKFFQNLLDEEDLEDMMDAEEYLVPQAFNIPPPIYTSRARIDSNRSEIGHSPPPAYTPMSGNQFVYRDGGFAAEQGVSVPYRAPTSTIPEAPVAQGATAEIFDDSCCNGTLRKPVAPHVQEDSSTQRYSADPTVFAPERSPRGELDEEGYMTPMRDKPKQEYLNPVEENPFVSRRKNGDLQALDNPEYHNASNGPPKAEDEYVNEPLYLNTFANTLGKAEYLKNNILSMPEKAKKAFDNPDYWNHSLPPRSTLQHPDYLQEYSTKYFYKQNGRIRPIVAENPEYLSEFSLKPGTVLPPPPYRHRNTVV
Sequence of Cyclin-dependent kinase 4 (Homo sapiens) (P11802 whole entry, the tested form may be a part, canonical isoform): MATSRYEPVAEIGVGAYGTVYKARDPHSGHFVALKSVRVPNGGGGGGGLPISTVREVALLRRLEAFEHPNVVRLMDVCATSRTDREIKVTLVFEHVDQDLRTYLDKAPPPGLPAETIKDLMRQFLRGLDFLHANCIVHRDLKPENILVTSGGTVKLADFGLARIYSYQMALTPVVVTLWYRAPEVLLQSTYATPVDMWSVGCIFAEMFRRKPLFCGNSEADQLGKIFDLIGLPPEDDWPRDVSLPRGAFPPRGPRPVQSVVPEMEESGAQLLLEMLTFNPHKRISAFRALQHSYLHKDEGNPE

## O=C(Nc1cccc([C@@H]2CN(c3ncnc4[nH]ccc34)CCN2CCO)c1)Nc1c(F)cccc1N1CCCC1
[1]
  inhibition: 61%
[2]
  inhibition: 56%
[3]
  inhibition: 0.3%
[4]
  inhibition: 16%
[5]
  inhibition: 100%
[6]
  inhibition: 97%
[7]
  inhibition: 100%
[8]
  inhibition: 74%
[9]
  inhibition: 100%
[10]
  inhibition: 78%
[11]
  inhibition: 100%
[12]
  inhibition: 86%
[13]
  inhibition: 84%
[14]
  inhibition: 85%
[15]
  inhibition: 99%
[16]
  inhibition: 95%
[17]
  inhibition: 98%
[18]
  inhibition: 100%
[19]
  inhibition: 80%

## O=C(Nc1cccc([C@H]2CCCN(c3ncnc4[nH]ccc34)C2)c1)Nc1ccccc1N1CCCC1
[20]
  inhibition: 54%
[21]
  inhibition: 100%
[22]
  inhibition: 100%
[23]
  inhibition: 88%
[24]
  inhibition: 0.55%
[25]
  inhibition: 67%
[26]
  inhibition: 100%
[27]
  inhibition: 100%
